# Test results as given in patent US20050222200A1, “AMIDE DERIVATIVES AS ION CHANNEL LIGANDS AND PHARMACEUTICAL COMPOSITIONS AND METHODS OF USING THE SAME” (Renovis, Inc., priority 2003, published 2005).
# Biological target: VR1 (Rattus norvegicus, UniProt O35433)
# Experiment: Calcium imaging assay: inhibition of capsaicin induced calcium influx in DRG neurons (Fura2, microscope)
# Type: cell-based
# Set-up: endogenous in cells; host or cells: DRG neurons
# Conditions: capsaicin stimulation; class symbols per legend
# Experimental: VR1 protein is a heat-gated cation channel that […] resulting in neuronal membrane depolarization and elevated intracellular calcium levels. Therefore the functional activity of compounds at the VR1 receptor may be determined by measuring changes in intracellular calcium levels in neurons such as the dorsal root ganglion.
# DRG neurons were grown on PDL coated 96-well black-walled plates, in the presence of DMEM medium containing 5% Penstrep, 5% Glutamax, 200 μg/ml hygromycin, 5 μg/ml blasticide and 10% heat inactivated FBS. Prior to assay, cells were loaded with 5 μg/ml Fura2 in normal saline solution at 37° C for 40 minutes. Cells were then washed with normal saline to remove dye before commencement of the experiment.
# The plated neurons were transferred into a chamber on the stage of a Nikon eclipse TE300 microscope after which neurons were allowed to attain a stable fluorescence for about 10 minutes before beginning the experiment. The assay consists of two stages, a pretreatment phase followed by a treatment phase. First, a solution of the test compound was added from a multivalve perfusion system to the cells for 1 minute (pretreatment). Immediately following, capsaicin (250 nM) was added in the presence of the test compound (treatment) for a specific period between 20 and 60 seconds.
# Fura2 was excited at […] to indicate relative calcium ion concentration. Changes in wavelength measurements were made throughout the course of the experiment. The fluorescence ratio was calculated by dividing fluorescence measured at 340 nm by that at 380 nM. Data was collected using Intelligent Imaging’s Slidebook software. All compounds that inhibited capsaicin induced calcium influx greater than 75% were considered positives.
# Fluorescence reflecting calcium ion influx is reduced.
# Chain of VR1 (O35433 whole entry): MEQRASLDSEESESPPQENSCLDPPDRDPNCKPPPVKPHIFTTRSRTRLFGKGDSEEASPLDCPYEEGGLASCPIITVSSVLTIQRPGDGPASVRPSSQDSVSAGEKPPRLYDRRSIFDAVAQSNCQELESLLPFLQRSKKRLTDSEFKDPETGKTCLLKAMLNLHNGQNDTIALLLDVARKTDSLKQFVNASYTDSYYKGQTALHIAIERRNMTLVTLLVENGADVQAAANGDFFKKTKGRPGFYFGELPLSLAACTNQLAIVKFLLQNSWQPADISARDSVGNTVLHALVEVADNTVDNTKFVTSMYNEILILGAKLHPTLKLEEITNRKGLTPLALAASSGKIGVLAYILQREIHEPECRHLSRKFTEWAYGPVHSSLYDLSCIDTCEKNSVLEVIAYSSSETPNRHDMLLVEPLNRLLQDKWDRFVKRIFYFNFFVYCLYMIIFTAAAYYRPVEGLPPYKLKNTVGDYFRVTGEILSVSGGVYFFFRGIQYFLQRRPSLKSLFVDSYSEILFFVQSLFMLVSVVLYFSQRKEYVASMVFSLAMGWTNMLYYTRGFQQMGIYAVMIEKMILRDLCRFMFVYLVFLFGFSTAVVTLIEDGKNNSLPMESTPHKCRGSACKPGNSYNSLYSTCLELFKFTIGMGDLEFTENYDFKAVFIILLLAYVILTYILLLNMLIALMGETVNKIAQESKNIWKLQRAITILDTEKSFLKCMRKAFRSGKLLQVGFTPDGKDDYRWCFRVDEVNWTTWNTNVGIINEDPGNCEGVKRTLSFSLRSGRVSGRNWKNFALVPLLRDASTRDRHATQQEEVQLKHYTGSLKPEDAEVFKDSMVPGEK
row,SMILES,inhibition of calcium ion influx induced by capsaicin stimulation
1,C/C(=C\C(C)(C)C)c1ccc(C(=O)Nc2ncc(C(F)(F)F)cc2Cl)cc1 [Compound 345],+ (compound exhibited 0-25% inhibition of calcium ion influx induced by capsaicin stimulation)
2,C/C(=C\C(C)(C)C)c1ccc(C(=O)NCCc2cnc[nH]2)cc1 [Compound 356],+ (compound exhibited 0-25% inhibition of calcium ion influx induced by capsaicin stimulation)
3,C/C(=C\C(C)(C)C)c1ccc(C(=O)NCc2cccnc2)cc1 [Compound 357],+ (compound exhibited 0-25% inhibition of calcium ion influx induced by capsaicin stimulation)
4,C/C(=C/C(C)(C)C)c1ccc(C(=O)Nc2ccc3ccccc3c2)cc1 [Compound 358],++++ (compound exhibited 75% or greater inhibition of calcium ion influx induced by capsaicin stimulation)
5,CC(C)(C)C#Cc1ccc(C(=O)Nc2ccc3c(c2)OCO3)cc1 [Compound 361],++++ (compound exhibited 75% or greater inhibition of calcium ion influx induced by capsaicin stimulation)
6,CCN(CC)CCOC(=O)c1ccc(NC(=O)c2ccc(C#CC(C)(C)C)cc2)cc1 [Compound 363],+++ (compound exhibited 50-75% inhibition of calcium ion influx induced by capsaicin stimulation)
7,COc1cccc(NC(=O)c2ccc(C#CC(C)(C)C)cc2)c1 [Compound 364],++++ (compound exhibited 75% or greater inhibition of calcium ion influx induced by capsaicin stimulation)
8,CC(C)(C)C#Cc1ccc(C(=O)Nc2ccc(Cl)cc2)cc1 [Compound 365],+ (compound exhibited 0-25% inhibition of calcium ion influx induced by capsaicin stimulation)
9,COc1ccc(NC(=O)c2ccc(C#CC(C)(C)C)cc2)cc1Cl [Compound 366],++ (compound exhibited 25-50% inhibition of calcium ion influx induced by capsaicin stimulation)
10,CC(C)(C)C#Cc1ccc(C(=O)Nc2ccc(C(F)(F)F)cc2)cc1 [Compound 367],++ (compound exhibited 25-50% inhibition of calcium ion influx induced by capsaicin stimulation)
11,CC(C)(C)C#Cc1ccc(C(=O)Nc2ccc(Cl)c(C(F)(F)F)c2)cc1 [Compound 368],++++ (compound exhibited 75% or greater inhibition of calcium ion influx induced by capsaicin stimulation)
12,COc1cc(NC(=O)c2ccc(C#CC(C)(C)C)cc2)cc(C(F)(F)F)c1 [Compound 372],++++ (compound exhibited 75% or greater inhibition of calcium ion influx induced by capsaicin stimulation)
13,CC(C)(C)C#Cc1ccc(C(=O)Nc2ccc3c(c2)OCCO3)cc1 [Compound 373],++++ (compound exhibited 75% or greater inhibition of calcium ion influx induced by capsaicin stimulation)
14,CC(C)(C)C#Cc1ccc(C(=O)Nc2cccc(C(F)(F)F)c2)cc1 [Compound 374],++++ (compound exhibited 75% or greater inhibition of calcium ion influx induced by capsaicin stimulation)
15,CC(C)Oc1cccc(NC(=O)c2ccc(C#CC(C)(C)C)cc2)c1 [Compound 376],+++ (compound exhibited 50-75% inhibition of calcium ion influx induced by capsaicin stimulation)
16,CC(C)(C)C#Cc1ccc(C(=O)Nc2ccc(S(C)(=O)=O)cc2)cc1 [Compound 377],++++ (compound exhibited 75% or greater inhibition of calcium ion influx induced by capsaicin stimulation)

row,SMILES,inhibition of calcium ion influx induced by capsaicin stimulation
1,CC(C)(C)C#Cc1ccc(C(=O)Nc2cccc3cnccc23)cc1 [Compound 378],++++ (compound exhibited 75% or greater inhibition of calcium ion influx induced by capsaicin stimulation)
2,CC(C)(C)C#Cc1ccc(C(=O)Nc2cnc3ccccc3c2)cc1 [Compound 379],++++ (compound exhibited 75% or greater inhibition of calcium ion influx induced by capsaicin stimulation)
3,CCN(CC)c1ccc(NC(=O)c2ccc(C#CC(C)(C)C)cc2)cc1 [Compound 380],++ (compound exhibited 25-50% inhibition of calcium ion influx induced by capsaicin stimulation)
4,CC(C)(C)C#Cc1ccc(C(=O)Nc2ccc(Br)cn2)cc1 [Compound 382],++ (compound exhibited 25-50% inhibition of calcium ion influx induced by capsaicin stimulation)
5,CC(C)(C)C#Cc1ccc(C(=O)Nc2ccc(C(F)(F)F)cn2)cc1 [Compound 383],+++ (compound exhibited 50-75% inhibition of calcium ion influx induced by capsaicin stimulation)
6,CC(C)(C)C#Cc1ccc(C(=O)Nc2ccc(Cl)nc2)cc1 [Compound 384],++++ (compound exhibited 75% or greater inhibition of calcium ion influx induced by capsaicin stimulation)
7,COc1ccc(NC(=O)c2ccc(C#CC(C)(C)C)cc2)cn1 [Compound 385],++++ (compound exhibited 75% or greater inhibition of calcium ion influx induced by capsaicin stimulation)
8,Cn1ccc2cc(NC(=O)c3ccc(C#CC(C)(C)C)cc3)ccc21 [Compound 387],++++ (compound exhibited 75% or greater inhibition of calcium ion influx induced by capsaicin stimulation)
9,COc1cccc(NC(=O)c2ccc(/C=C/C(F)(F)F)cc2)c1 [Compound 389],++++ (compound exhibited 75% or greater inhibition of calcium ion influx induced by capsaicin stimulation)
10,O=C(Nc1ccc(Cl)cc1)c1ccc(/C=C/C(F)(F)F)cc1 [Compound 390],++ (compound exhibited 25-50% inhibition of calcium ion influx induced by capsaicin stimulation)
11,COc1ccc(NC(=O)c2ccc(/C=C/C(F)(F)F)cc2)cc1Cl [Compound 391],+ (compound exhibited 0-25% inhibition of calcium ion influx induced by capsaicin stimulation)
12,O=C(Nc1ccc(C(F)(F)F)cc1)c1ccc(/C=C/C(F)(F)F)cc1 [Compound 392],+ (compound exhibited 0-25% inhibition of calcium ion influx induced by capsaicin stimulation)
13,CC(C)c1ccc(NC(=O)c2ccc(/C=C/C(F)(F)F)cc2)cc1 [Compound 394],++ (compound exhibited 25-50% inhibition of calcium ion influx induced by capsaicin stimulation)
14,CCCCc1ccc(NC(=O)c2ccc(/C=C/C(F)(F)F)cc2)cc1 [Compound 395],+ (compound exhibited 0-25% inhibition of calcium ion influx induced by capsaicin stimulation)
15,O=C(Nc1ccc2c(c1)OCCO2)c1ccc(/C=C/C(F)(F)F)cc1 [Compound 397],+++ (compound exhibited 50-75% inhibition of calcium ion influx induced by capsaicin stimulation)
